# Experimental data taken from patent US8796297B2, “4-substituted-2-amino-pyrimidine derivatives” (AbbVie Inc., priority 2009, dated 2014).
# pEC50, pKi: −log10 of the molar value. Structures can show the parent of a compound that is named as a salt.
# Experiments:
# [1] = target: T1, rat histamine H3 receptor (Rattus norvegicus (Rat), UniProt Q9QYN8); experiment: Radioligand competition binding assay, rat H3 receptor; settings: [3H]-N-α-methylhistamine competition binding
# Experimental: To determine the effectiveness of representative compounds of this invention as histamine-3 receptor ligands (H3 receptor ligands), the following tests were conducted according to previously described methods (see European Journal of Pharmacology 1990, 188, 219-227; Journal of Pharmacology and Experimental Therapeutics 1995, 275, 598-604; Journal of Pharmacology and Experimental Therapeutics 1996, 276, 1009-1015; and Biochemical Pharmacology 1973, 22, 3099-3108).
# The rat H3 receptor was cloned and expressed in cells, and competition binding assays carried out, according to methods previously described (see Esbenshade, et al. Journal of Pharmacology and Experimental Therapeutics 2005, 313, 165-175; Esbenshade et al., Biochemical Pharmacology 2004, 68, 933-945; and Krueger, et al. Journal of Pharmacology and Experimental Therapeutics 2005, 314, 271-281). Membranes were prepared from C6 or HEK293 cells, expressing the rat histamine H3 receptor, by homogenization on ice in TE buffer (50 mM Tris-HCl buffer, pH 7.4, containing 5 mM EDTA), 1 mM benzamidine, 2 μg/ml aprotinin, 1 μg/ml leupeptin, and 1 μg/ml pepstatin. The homogenate was centrifuged at 40,000 g for 20 minutes at 4° C. This step was repeated, and the resulting pellet was resuspended in TE buffer. Aliquots were frozen at −70° C. until needed. On the day of assay, membranes were thawed and diluted with TE buffer.
# Membrane preparations were incubated with [^3H]-N-α-methylhistamine (0.5-1.0 nM) in the presence or absence of increasing concentrations of ligands for H3 receptor competition binding. The binding incubations were conducted in a final volume of 0.5 ml TE buffer at 25° C. and were terminated after 30 minutes. Thioperamide (30 μM) was used to define non-specific binding. All binding reactions were terminated by filtration under vacuum onto polyethylenimine (0.3%) presoaked Unifilters (Perkin Elmer Life Sciences) or Whatman GF/B filters followed by three brief washes with 2 ml of ice-cold TE buffer. Bound radiolabel was determined by liquid scintillation counting. For all of the radioligand competition binding assays, IC50 values and Hill slopes were determined by Hill transformation of the data and pKi values were determined by the Cheng-Prusoff equation.
# [2] = target: T2, human histamine H3 receptor (Homo sapiens (Human), UniProt Q9Y5N1); experiment: Radioligand competition binding assay, human H3 receptor; settings: [3H]-N-α-methylhistamine competition binding
# T2 sequence (Q9Y5N1 whole entry): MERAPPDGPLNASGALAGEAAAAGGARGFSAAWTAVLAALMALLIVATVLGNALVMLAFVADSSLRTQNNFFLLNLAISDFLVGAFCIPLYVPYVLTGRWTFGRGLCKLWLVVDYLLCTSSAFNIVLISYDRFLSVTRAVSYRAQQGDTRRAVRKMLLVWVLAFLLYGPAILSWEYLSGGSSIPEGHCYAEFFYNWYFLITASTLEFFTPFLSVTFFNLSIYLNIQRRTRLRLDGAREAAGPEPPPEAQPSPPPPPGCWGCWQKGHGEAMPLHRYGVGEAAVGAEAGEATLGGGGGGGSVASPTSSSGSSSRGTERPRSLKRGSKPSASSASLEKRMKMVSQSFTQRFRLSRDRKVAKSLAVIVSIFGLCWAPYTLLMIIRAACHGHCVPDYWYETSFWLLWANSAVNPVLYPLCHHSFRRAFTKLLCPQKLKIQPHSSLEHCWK
# rat H3R = rat H3R (Rattus norvegicus (Rat), UniProt Q9QYN8); experiment: GTPγS functional assay, membranes from C6 cells expressing the rat H3R; assay type: biochemical; settings: for Emax: 5 min, read-out: Rat Maximum (%); for pEC50: GTPγS agonist potency
# Chain of rat H3R (Q9QYN8 whole entry): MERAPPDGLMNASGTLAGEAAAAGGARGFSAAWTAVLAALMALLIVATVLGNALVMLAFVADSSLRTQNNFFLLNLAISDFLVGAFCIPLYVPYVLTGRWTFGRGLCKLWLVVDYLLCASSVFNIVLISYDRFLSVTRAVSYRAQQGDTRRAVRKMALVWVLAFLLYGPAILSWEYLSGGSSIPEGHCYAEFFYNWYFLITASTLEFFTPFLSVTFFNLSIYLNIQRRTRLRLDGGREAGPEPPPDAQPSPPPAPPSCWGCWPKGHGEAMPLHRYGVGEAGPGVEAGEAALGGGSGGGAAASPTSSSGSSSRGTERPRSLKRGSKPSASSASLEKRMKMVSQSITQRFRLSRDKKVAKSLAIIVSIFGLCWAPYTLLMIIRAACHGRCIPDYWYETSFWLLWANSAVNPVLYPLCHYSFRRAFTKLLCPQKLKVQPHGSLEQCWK
# Experimental: (§1) Membranes from HEK cells expressing the human H3R, or from C6 cells expressing the rat H3R, were prepared by homogenization in cold buffer containing 50 mM Tris-HCl (pH 7.4), 5 mM EDTA, 10 mM MgCl2, 1 mM benzamidine, 2 μg/ml aprotinin, 1 μg/ml leupeptin, and 1 μg/ml pepstatin. The homogenate was centrifuged at 40,000 g for 20 min at 4° C., and the resulting pellet was resuspended in 50 mM Tris-HCl (pH 7.4), 5 mM EDTA, and 10 mM MgCl2 and homogenized. Glycerol and bovine serum albumin were added to a final concentration of 10% glycerol and 1% bovine serum albumin. Membranes were diluted in GTPγS assay buffer (25 mM HEPES, 2.5 mM MgCl2, and 75 mM NaCl, pH 7.4) and 10 μg of membrane protein was incubated in a 96-well deep-well block in the presence of 5.0 μM unlabeled GDP, approximately 0.5 nM of [^35S]GTPγS, and increasing concentrations of test compounds. Samples were incubated at 37° C. for 5 min and the assays were terminated by the addition of cold buffer (50 mM Tris-HCl, 75 mM NaCl, and 2.5 mM MgCl2, pH 7.6) and subsequent harvesting onto a Packard Unifilter 96-well GF/B plate followed by extensive washing. Microscint 20 (PerkinElmer Life Sciences) was added to the samples, and bound [^35S]GTPγS was determined using the Topcount (Perkin Elmer Life Sciences). The percentage of [^35S]GTPγS bound in each sample was calculated as a percentage of that bound to control samples incubated in the absence of the H3R agonists (basal). Data were analyzed from experiments performed in triplicate using GraphPad Prism to obtain pEC50 values, Hill slopes, and maximal % response.
# [3] = target: T1, rat histamine H3 receptor; experiment: FLIPR functional assay (Ca2+, HEK-293 cells coexpressing Gαqi5), rat H3 receptor; assay type: cell-based; settings: for pEC50: FLIPR agonist potency; for Rat Maximum (%): FLIPR, percentage of the response to 1 μM RAMH
# Text: (§2) There are many methods available to show the effectiveness of compounds as histamine H3 receptor ligands. Histamine H3 receptors from mammalian species have been cloned. Methods to clone, express, and assess the potency and functional activity of such cloned genes are well known to those skilled in the art of molecular biology. […] In the present case, to determine the potency and effectiveness of representative compounds of this invention as histamine-H3 receptor ligands (H3 receptor ligands), the following tests were conducted according to previously described methods (see Esbenshade, et al., Journal of Pharmacology and Experimental Therapeutics 2003, 305, 887-896, Esbenshade, et al., Biochemical Pharmacology 2004, 68, 933-945, and in Krueger, et al., Journal of Pharmacology and Experimental Therapeutics 2005, 314, 271-281): histamine H3 receptors were cloned and stably expressed in HEK-293 (human embryonic kidney) cells coexpressing a Gαqi5. Before testing, cells were loaded with a Ca^+2 sensitive fluorescent dye, in this case Fluo-4. For partial agonist or full agonist ligands, addition of compound to the cells led to an increase in intracellular Ca^+2 which was detected by FLIPR (Fluorescence Imaging Plate Reader; Molecular Devices, Sunnyvale, Calif.) technology. The fluorescence intensities measured before addition of the test compound were subtracted from the fluorescence intensities at later time points. Peak response values determined at each concentration of ligand were expressed as a percentage of the response obtained with a maximal concentration (1 μM) of the full agonist R-α-methyl-histamine (RAMH). Concentration versus response data were analyzed to obtain compound potency as EC50 values for full and partial agonists.
# human H3R = human H3R (Homo sapiens (Human), UniProt Q9Y5N1); experiment: GTPγS functional assay, membranes from HEK cells expressing the human H3R; assay type: biochemical; settings: for Emax: 5 min, [35S]GTPγS bound as percentage of basal, read-out: Human Maximum (%); for pEC50: GTPγS agonist potency
# Chain of human H3R (Q9Y5N1 whole entry): as the sequence (Q9Y5N1 whole entry) above
# Experimental: as §1
# [4] = target: T2, human histamine H3 receptor; experiment: FLIPR functional assay (Ca2+, HEK-293 cells coexpressing Gαqi5), human H3 receptor; assay type: cell-based; settings: for pEC50: FLIPR agonist potency; for Emax: HEK293, FLIPR, percentage of the response to 1 μM RAMH, read-out: Human Maximum (%)
# Text: as §2
# [5] = [35S]GTPγS bound as percentage of basal
# T1 sequence (Q9QYN8 whole entry): as the sequence (Q9QYN8 whole entry) above
Compound,pKi [1],pKi [2],Emax (rat H3R; [5]) [%],pEC50 (rat H3R),pEC50 [3],Rat Maximum (%) [3] [%],Emax (human H3R) [%],pEC50 (human H3R),pEC50 [4],Emax [4] [%],Rat Maximum (%) (rat H3R; [5])
"CN(C)CCN(C)c1ccnc(N)n1 [Example 3, N^4-(2-(dimethylamino)ethyl)-N^4-methylpyrimidine-2,4-diamine dihydrochloride]",< 6.51,6.59,,,,,,,,,
"CC(C)(C)OC(=O)N1CC[C@@H](Nc2ccnc(N)n2)C1 [Example 17, (R)-tert-butyl 3-(2-aminopyrimidin-4-ylamino)pyrrolidine-1-carboxylate]",< 6.47,< 6.44,130,5.63,5.32,75.8,,,,,
"CC(C)(C)OC(=O)N1CCC(CNc2ccnc(N)n2)CC1 [Example 15, tert-butyl 4-((2-aminopyrimidin-4-ylamino)methyl)piperidine-1-carboxylate]",< 6.48,< 6.45,138,5.13,,,117,5.32,7.36,39,
"Nc1nccc(N2CCCN(Cc3ccccc3)CCC2)n1 [Example 21, 4-(5-benzyl-1,5-diazocan-1-yl)pyrimidin-2-amine]",7.26,6.79,135,6.67,,,120,6.94,,,
"NCCCNc1ccnc(N)n1 [Example 6, N^4-(3-aminopropyl)pyrimidine-2,4-diamine dihydrochloride]",7.88,7.21,168,6.51,,,162,6.27,7.87,93,
"Nc1nccc(NC2CCN(Cc3ccccc3)CC2)n1 [Example 12, N^4-(1-benzylpiperidin-4-yl)pyrimidine-2,4-diamine 2,2,2-trifluoroacetate]",7.61,7.14,136,6.49,,,139,6.06,,,
"C[C@@H](N)Cc1c[nH]cn1 [R-α-methyl-histamine (RAMH), R-α-methyl-histamine, reference compound]",,,224,,,,240,,,,
"Nc1nccc(NC2CNC2)n1 [Example 22, N^4-(azetidin-3-yl)pyrimidine-2,4-diamine trihydrochloride]",7.01,7.48,156,6.17,,,216,6.34,,,
"Nc1nccc(N2C[C@H]3CN(Cc4ccccc4)C[C@H]3C2)n1 [Example 19, 4-((3aR,6aS)-5-benzylhexahydropyrrolo[3,4-c]pyrrol-2(1H)-yl)pyrimidin-2-amine]",6.77,6.80,116,6.35,,,,,5.68,50.2,
"CC(C)(CN)CNc1ccnc(N)n1 [Example 11, N^4-(3-amino-2,2-dimethylpropyl)pyrimidine-2,4-diamine]",< 6.50,< 6.47,,,,,111,5.24,,,
"CNCCCNc1ccnc(N)n1 [Example 7, N^4-(3-(methylamino)propyl)pyrimidine-2,4-diamine dihydrochloride]",7.09,7.55,,,,,,,,,
"CN(C)CCCN(C)c1ccnc(N)n1.O=C(O)C(O)C(O)C(=O)O [Example 9, N^4-(3-(dimethylamino)propyl)-N^4-methylpyrimidine-2,4-diamine(2R,3R)-2,3-dihydroxysuccinate]",< 6.51,6.74,,5.71,,,,,,,110
"Nc1nccc(N2CCC3(CC2)CNC3)n1 [Example 23, 4-(2,7-diazaspiro[3.5]nonan-7-yl)pyrimidin-2-amine trihydrochloride]",7.91,7.17,126,6.96,,,147,6.29,,,
"CC(C)(C)OC(=O)N1CCN(c2ccnc(N)n2)CC1 [Example 14, tert-butyl 4-(2-aminopyrimidin-4-yl)piperazine-1-carboxylate]",< 6.45,< 6.42,,,,,,,6.50,67.6,
"Cl.Cl.Nc1nccc(N[C@@H]2CCNC2)n1 [Example 18, (R)—N^4-(pyrrolidin-3-yl)pyrimidine-2,4-diamine dihydrochloride]",6.79,< 6.44,162,5.79,7.13,78.6,179,5.60,,,
"Nc1nccc(NC2CCNCC2)n1 [Example 24, N^4-(piperidin-4-yl)pyrimidine-2,4-diamine dihydrochloride]",6.98,6.49,,,,,,,,,
"Nc1nccc(N2CCNCC2)n1 [Example 25, 4-(piperazin-1-yl)pyrimidin-2-amine dihydrochloride]",8.24,7.62,141,7.52,,,150,6.88,,,
"CN(C)CCNc1ccnc(N)n1 [Example 2, N^4-(2-(dimethylamino)ethyl)pyrimidine-2,4-diamine 2,2,2-trifluoroacetate]",7.70,7.27,183,6.47,,,160,6.28,7.07,77.7,
"CN(CCCN)c1ccnc(N)n1 [Example 8, N^4-(3-aminopropyl)-N^4-methylpyrimidine-2,4-diamine dihydrochloride]",6.71,6.50,,,,,,,,,
"CN1CCN(c2ccnc(N)n2)CC1 [Example 13, 4-(4-methylpiperazin-1-yl)pyrimidin-2-amine]",8.13,7.86,135,7.27,,,127,6.89,,,
